From publication PMC7494739, “Evaluation of Artificial Intelligence in Participating Structure-Based Virtual Screening for Identifying Novel Interleukin-1 Receptor Associated Kinase-1 Inhibitors” (Frontiers in Oncology, 2020)

What was measured:
[1] = target: IRAK1; conditions: Figure 1; cited from earlier work
[2] = test system: IRAK1; conditions: Figure 1; cited from earlier work; remark: listed apart in the source
[3] = target: IRAK1 kinase (Homo sapiens, UniProt P51617); assay: IRAK1 bioactivity test (mobility shift assay); format: biochemical; conditions: for IC50: Table 3, initial concentration 100 μM, serial 10-fold dilution to 1 nM
Chain of IRAK1 kinase (P51617 whole entry): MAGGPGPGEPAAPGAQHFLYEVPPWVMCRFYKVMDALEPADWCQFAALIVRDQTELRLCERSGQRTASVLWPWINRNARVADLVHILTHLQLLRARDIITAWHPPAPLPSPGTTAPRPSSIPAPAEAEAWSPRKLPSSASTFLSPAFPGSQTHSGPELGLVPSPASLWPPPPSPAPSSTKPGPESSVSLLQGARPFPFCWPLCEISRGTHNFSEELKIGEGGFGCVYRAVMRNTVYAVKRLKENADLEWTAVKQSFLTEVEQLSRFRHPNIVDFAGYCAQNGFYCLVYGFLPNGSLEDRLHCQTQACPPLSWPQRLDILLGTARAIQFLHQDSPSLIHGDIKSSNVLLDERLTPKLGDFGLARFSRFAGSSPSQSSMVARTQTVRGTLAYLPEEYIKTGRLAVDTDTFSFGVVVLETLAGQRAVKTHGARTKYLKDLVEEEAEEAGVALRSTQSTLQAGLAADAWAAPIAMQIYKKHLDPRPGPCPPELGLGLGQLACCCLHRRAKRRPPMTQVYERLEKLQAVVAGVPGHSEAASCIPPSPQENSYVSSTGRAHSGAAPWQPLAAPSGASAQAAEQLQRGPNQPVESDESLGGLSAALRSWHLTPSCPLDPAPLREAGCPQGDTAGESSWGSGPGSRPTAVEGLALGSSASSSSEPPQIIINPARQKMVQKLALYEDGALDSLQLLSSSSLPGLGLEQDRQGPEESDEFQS

SMILES: CC(C)NC(=O)[C@H]1CC[C@@H](n2/c(=N/C(=O)c3cc(F)cc(F)c3)[nH]c3ccc(CN4CCC(C(C)(C)O)CC4)cc32)CC1 [ALK inhibitor 2]
- Kd [1]: 5.6 nM

SMILES: C1=C/COCc2cc(ccc2OCCN2CCCC2)Nc2nccc(n2)-c2cccc(c2)COC/1 [JAK/FLT3 inhibitor 3, Pacritinib]
- IC50 [2]: 13.6 nM

SMILES: COc1cccc(Nc2nnc(-c3cc4ccc(O)cc4oc3=O)s2)c1 [K231-1211]
- Inhibition/% ([3]; compound at 20 μM): -10.5%

SMILES: O=C(Nc1nc2ccccc2n1CCN1CCOCC1)c1cccc([N+](=O)[O-])c1 [benzimidazole derivative 1]
- IC50 [2]: 300 nM

SMILES: NC(=O)COc1ccc2occ(C(=O)c3ccc(Cl)cc3)c2c1 [compound 4]
- IC50 [3]: 18000 nM

SMILES: COc1ccc(C(=O)c2coc3ccc(OCC(N)=O)cc23)cc1OC [compound 5]
- IC50 [3]: 23700 nM
